Entries after “also recorded” stand apart in the source; their conditions may differ.
Tests used:
Type in all cases: in vivo, human
[1] = test system: patients having hormone refractory prostate cancer (HRPCa); experiment: Health-related quality-adjusted time-to-progression (QATTP), Kaplan-Meier product limit analysis; details: for health-related QATTP, difference between the atrasentan treatment groups: 10 mg vs 2.5 mg
Description: The health-related QATTP model used for the practice of this invention expresses progression-free time as an equally preferable amount of time spent in full health. This is achieved by using patient-reported health-related QoL, as measured for the duration of observation or progression-free interval, to weight progression-free time. […] Patients received treatment with either 10 mg (N=89) or 2.5 mg (N=95) of atrasentan or placebo (N=104) until experiencing a clinical event indicative of disease progression as defined by palliative opiate treatment of new bone or visceral pain, palliative radiation treatment of new bone pain, or new tumor growth symptoms requiring intervention or treatment with chemotherapy. Patient-reported health-related QoL data were collected with the EORTC QLQ-30 and the FACT-G and FACT-P, both of which were administered at baseline, at six week intervals and at the patient's final visit. A patient's transformed domain score and total score from both the EORTC QLQ-30 and FACT were used to weight the time-to-progression outcome data. Transformed domain scores ranged between 0 and 1, so the reported health-related QATTP outcome was never larger than actual time to progression. Possible scores for the fourteen EORTC domains each range between […]. For six domains (physical, emotional, role, social, and cognitive functioning and global score), a higher score means a better health-related QoL. These six scores were transformed to weights by dividing the patient-reported scores by 100. For the remaining eight EORTC domains, a higher score indicates worse symptoms (a worse health-related QoL). These domains are pain, fatigue, nausea and vomiting, appetite loss, […], sleep disturbance, diarrhea, and constipation. These eight scores were converted to weight adjustments by dividing them by 100 and subtracting the result from the integer 1 to provide consistent directionality of response. […] Each patient's health-related QATTP was computed as the […] of the health-related QoL weights and the duration for which that patient experienced that health-related QoL. If a patient experienced a clinical event between two health-related QoL assessments, the set of health-related QoL domain scores immediately prior to the event were carried forward to the time of the clinical event. The mean and median health-related QATTP outcomes were then estimated using Kaplan-Meier product limit methodology (Journal of the American Statistical Association, vol.53, 1958, pp 457-481). The area under a Kaplan-Meier survival curve conveys an estimated mean health-related QATTP. This analysis was applied to both intent-to-treat (ITT) and per protocol population data. All health-related QATTP comparisons between atrasentan and placebo treatment groups were based on log-rang test statistical significance at an α of 0.05. Results of the Kaplan-Meier product limit survival method analysis are reported in Table 2 (Intent to Treat) and Table 3 (Per Protocol Population). Mean and median health-related QATTP are shown by treatment arm. Log-rank tests comparing the differences between treatment groups are also reported.

[2] = test system: patients having hormone refractory prostate cancer (HRPCa); experiment: Area under the Curve (AUC) analysis of health-related QoL domain scores, one year follow-up
Text: The Kaplan-Meier product limit method can provide biased results if study data are obtained under certain conditions such as staggered entry of subjects into the study and/or incomplete follow-up (Biometrics. 1989; 5:781-795). Thus, a second study was implemented to verify that the conclusions derived from the Kaplan-Meier would remain robust to the length of follow-up. The assumption was that all patients were followed for one year. Patients who discontinued from the study prior to one year of observation had their last observation for all health-related QoL domains carried forward through the remainder of the year. Similarly, patients who had not completed one year of observation had their health-related QoL data carried forward through one year. If the patient experienced a clinical event within the one year period, the last observation was not carried forward. The Area under the Curve (AUC) value for each domain was computed by multiplying the health-related QoL domain score by the respective duration of that score. Finally, AUC values were aggregated across all subjects within each respective treatment group (atrasentan (10 mg), atrasentan (2.5 mg), and placebo). Aggregated AUC values for each domain were compared for differences between treatment groups using a t-test.

[3] = test system: patients having hormone refractory prostate cancer (HRPCa); experiment: Time to disease progression, PSA progression and markers of bone metabolism
Description: Patients received treatment with either 10 mg (N=89) or 2.5 mg (N=95) of atrasentan or placebo (N=104) until experiencing a clinical event indicative of disease progression as defined by palliative opiate treatment of new bone or visceral pain, palliative radiation treatment of new bone pain, or new tumor growth symptoms requiring intervention or treatment with chemotherapy.

[4] = At. 10 mg, adjusted by FACT Functional Well Being, Intent to Treat
[5] = At. 10 mg, adjusted by FACT Physical Well Being, Per Protocol
[6] = 10 mg and 2.5 mg, Per Protocol subjects

Which “mean health-related QATTP vs placebo” value ([1]; 2.5 mg, per protocol) does the source give for `CCCCN(CCCC)C(=O)CN1C[C@H](c2ccc3c(c2)OCO3)[C@@H](C(=O)O)[C@@H]1c1ccc(OC)cc1` [atrasentan, (2R,3R,4S)-2-(4-methoxyphenyl)-4-(1,3-benzodioxol-5-yl)-1-(N,N-di(n-butyl)aminocarbonylmethyl)pyrrolidine-3-carboxylic] here?
Its value is “longer”.

What about the “log rank test of health-related QATTP vs placebo” value ([1]; 2.5 mg, per protocol, all QoL domains except dyspnea and functional well-being) of the same compound?
The value was “statistically significant”.

What about the “mean and median health-related QATTP, atrasentan treatment groups vs placebo” value ([1]; 10 mg and 2.5 mg, intent-to-treat population) of the same compound?
The value was “no statistically significant differences”.

What about the “health-related QATTP, difference between the atrasentan treatment groups” value ([1]; intent-to-treat population) of the same compound?
The value was “no statistically significant differences”.

What about the “health-related QATTP, difference between the atrasentan treatment groups” value ([1]; per protocol, any QoL domain) of the same compound?
Its value is “no statistical differences”.

What about the “health-related QATTP trend vs placebo” value ([1]; 10 mg, per protocol, dyspnea, global score, emotional well-being, social well-being, p<0.10) of the same compound?
The value was “trend favored”.

What about the “weighted health-related QATTP vs placebo group” value ([1]; 10 mg, per protocol, p<0.05, all QoL domains except dyspnea, global score, emotional, social and functional well-being) of the same compound?
The value was “significantly longer”.

And the “Health-Related QATTP Mean” value ([1]; At. 2.5 mg, adjusted by EORTC Cognitive Functioning, Intent to Treat)?
Its value is 180 days.

And the “Health-Related QATTP Mean” value ([1]; At. 2.5 mg, adjusted by EORTC Cognitive Functioning, Per Protocol)?
Its value is 190 days.

And the “Health-Related QATTP Mean” value ([1]; At. 2.5 mg, adjusted by EORTC Constipation, Intent to Treat)?
The value was 180 days.

And the “Health-Related QATTP Mean” value ([1]; At. 2.5 mg, adjusted by EORTC Constipation, Per Protocol)?
Its value is 190 days.

What about the “Health-Related QATTP Mean” value ([1]; At. 2.5 mg, adjusted by EORTC Dyspnea, Per Protocol) of the same compound?
The value was 180 days.

And the “Health-Related QATTP Mean” value ([1]; At. 2.5 mg, adjusted by FACT Emotional Well Being, Intent to Treat)?
The value was 180 days.

And the “Health-Related QATTP Mean” value ([1]; At. 2.5 mg, adjusted by FACT Social/Family Well Being, Intent to Treat)?
Its value is 160 days.

What about the “Health-Related QATTP Mean” value ([1]; At. 2.5 mg, adjusted by FACT-G, Per Protocol) of the same compound?
The value was 180 days.

What about the “Health-Related QATTP Mean” value ([1]; At. 2.5 mg, adjusted by FACT-P, Per Protocol) of the same compound?
Its value is 160 days.

What about the “Health-Related QATTP Mean” value ([1]; At. 10 mg, adjusted by EORTC Role Functioning, Intent to Treat) of the same compound?
Its value is 180 days.

What about the “Health-Related QATTP Mean” value ([1]; At. 10 mg, adjusted by EORTC Social Functioning, Intent to Treat) of the same compound?
The value was 190 days.

What about the “Health-Related QATTP Mean” value [1, 4] of the same compound?
The value was 140 days.

And the “Health-Related QATTP Median” value [1, 4]?
Its value is 98 days.

And the “Health-Related QATTP Mean” value [1, 5]?
The value was 190 days.

And the “Health-Related QATTP Median” value [1, 5]?
The value was 130 days.

What about the “Health-Related QATTP Mean” value ([1]; At. 10 mg, adjusted by FACT-G, Intent to Treat) of the same compound?
The value was 160 days.

What about the “Health-Related QATTP Median” value ([1]; At. 10 mg, adjusted by FACT-G, Per Protocol) of the same compound?
The value was 130 days.

And the “health-related QATTP compared to placebo” value ([1]; both 10 mg and 2.5 mg arms, per protocol analysis)?
The value was “improved; also recorded: longer”.

And the “AUC results vs placebo group” value ([2]; 2.5 mg, all domains except dyspnea, social/family, functional well-being and FACT-P)?
The value was “significantly improved”.

What about the “AUC of health-related QoL domain scores, atrasentan treatment vs placebo” value ([2]; Intent to Treat population) of the same compound?
Its value is “no statistical differences”.

And the “AUC of health-related QoL domain scores, 10 mg vs 2.5 mg groups” value ([2]; per-protocol population)?
Its value is “not statistically differentiable”.

What about the “AUC of health-related QoL domain scores, atrasentan treatment groups vs placebo” value ([2]; per-protocol population, every QoL domain score) of the same compound?
The value was “strong trends in favor”.

And the “AUC for health-related QoL domain scores vs placebo” value ([2]; physical functioning, social functioning and pain domains)?
Its value is “significantly (p<0.05) longer”.

What about the “time to disease progression compared to placebo” value ([3]; 10 mg and 2.5 mg, Per Protocol analysis) of the same compound?
The value was “delayed”.

And the “markers of bone metabolism” value [3, 6]?
The value was “attenuated increases”.

And the “time to prostate-specific antigen (PSA) progression” value [3, 6]?
Its value is “delayed”.

And the “time to disease or PSA progression across treatment groups” value ([3]; intent-to-treat population)?
The value was “no statistically significant differences”.
